Experimental data reported in patent publication US8841254B2, “Method for treatment of anxiety” (Howard Florey Institute of Experimental Physiology and …, priority 2001, dated 2014).

What was measured:
[1] = biological target: T1, relaxin binding sites in THP-1 cells (Homo sapiens, UniProt Q9HBX9); test: THP-1 cell binding assay (competition for 33P-labeled H2 relaxin (B33))
T1 construct: induce cAMP production in the human monocytic cell line (THP-1); endogenous in cells; host or cells: THP-1 (human monocytic cell line)
T1 sequence (Q9HBX9 1-757): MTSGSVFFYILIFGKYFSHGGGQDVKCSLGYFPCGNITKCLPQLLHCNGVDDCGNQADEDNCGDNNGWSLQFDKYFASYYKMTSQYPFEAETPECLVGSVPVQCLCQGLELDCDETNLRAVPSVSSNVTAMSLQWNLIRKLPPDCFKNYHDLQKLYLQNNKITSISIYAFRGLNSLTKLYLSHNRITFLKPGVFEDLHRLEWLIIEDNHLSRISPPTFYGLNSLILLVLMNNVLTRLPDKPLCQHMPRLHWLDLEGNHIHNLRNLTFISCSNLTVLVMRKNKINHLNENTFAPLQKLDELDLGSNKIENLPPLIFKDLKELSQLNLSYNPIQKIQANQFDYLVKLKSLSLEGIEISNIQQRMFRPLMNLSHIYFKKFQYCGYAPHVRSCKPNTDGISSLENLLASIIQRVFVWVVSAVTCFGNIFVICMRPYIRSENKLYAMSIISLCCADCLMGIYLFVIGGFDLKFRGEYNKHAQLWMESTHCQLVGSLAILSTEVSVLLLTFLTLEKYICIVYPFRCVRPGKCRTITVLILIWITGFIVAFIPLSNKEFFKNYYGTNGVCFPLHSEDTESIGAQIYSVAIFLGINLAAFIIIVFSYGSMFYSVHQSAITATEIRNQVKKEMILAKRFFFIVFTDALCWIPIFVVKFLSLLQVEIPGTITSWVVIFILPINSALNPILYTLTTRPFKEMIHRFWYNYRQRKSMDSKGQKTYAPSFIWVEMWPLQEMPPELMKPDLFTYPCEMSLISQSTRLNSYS
Description: THP-1 cells were spun down and resuspended in binding buffer (20 mM HEPES, 50 mM NaCl, 1.5 mM CaCl2, 1% BSA, 0.1 mg/ml lysine, 0.01% […], pH 7.5) (Parsell et al (1996) J. Biol. Chem. 271, 27936-27941) to give 2×10^6 cells/well in a 96-well plate. The cells were incubated in binding buffer with ^33P-labeled H2 (B33) relaxin (100 pM: labeled as previously described (Tan et al (1999) Br. J. Pharmacol. 127, 91-98) at 25° C. for 90 min in the absence or presence of increasing concentrations of unlabeled H1, H2 and H3 relaxin ([…]). Non-specific binding was defined with H2 relaxin (1 μM). Cells were harvested using a Packard 96-well plate cell harvester and Whatman GF/C glass fibre filters treated with 0.5% polyethylenimine. The filters were washed three times with modified binding buffer (20 mM HEPES, 50 mM NaCl, 1.5 mM CaCl2), dried in a 37° C. oven, and the radioactivity counted by liquid scintillation spectrometry (TopCount™, Canberra Packard, Australia).

[2] = system: goat anti-H2 relaxin antibody; test: Antibody crossreactivity radioimmunoassay (displacement of 125I-labeled H2 relaxin); type: binding; settings: FIG. 4
Description: The ability of well characterized human relaxin antibodies to recognize H3 relaxin was tested in comparison to H1 and H2 relaxins by radioimmunoassay. Briefly, goat anti-H2 relaxin (Lucas et al (1989) J. Endocrinol. 120, 449-57) was coated onto 96 well ELISA plates (Disposable Products, Adelaide, Australia) at a dilution of 1:1000 with 0.05M sodium carbonate buffer at 4° C. overnight. After washing twice with PBS-T (phosphate buffered saline; 0.05% Tween 20, pH 7.4) dilutions of human relaxin peptides dissolved in 50 μl of assay buffer (1% BSA in PBS-T) were added together with 50,000 cpm ^125I-labeled relaxin, in 50 μl of assay buffer. H2 relaxin was ^125I-labeled and purified by HPLC (Palejwala et al (1998) Endocrinology 139, 1208-1212). After an overnight incubation at 4° C. the plates were washed twice with PBS-T. The antibody-bound-^125I-labeled H2 relaxin was collected by the addition of 1M NaOH and decanted into tubes for counting on a Packard 5010 gamma counter (Canberra Packard). Experiments were performed at least twice and similar results obtained. Data was plotted as the mean±SEM from one representative experiment performed in triplicate and plotted using PRISM.

[3] = biological target: T2, human relaxin receptors (THP-1 cells) (Homo sapiens, UniProt Q9HBX9); test: THP-1 cell bioassay (cAMP production); type: cell-based; settings: doses up to 1 μM
T2 construct: induce cAMP production in the human monocytic cell line (THP-1); endogenous in cells; host or cells: THP-1 (human monocytic cell line)
T2 sequence (Q9HBX9 1-757): T1 sequence (Q9HBX9 1-757)
Description: Biol. Chem. 271, 27936-27941), with the following modifications; […] The plate was then briefly centrifuged, the media removed and the cells resuspended in lysis buffer. cAMP levels were measured in the lysates using the cAMP Biotrak EIA system (Amersham International, Aylesbury, UK). […] Data represent the mean±SEM of three experiments performed in quadruplicate, and are plotted using PRISM (Graphpad Inc., San Diego, Calif.).

Compound	Ki [1] [nM]	ability to displace 125I-labeled H2 relaxin binding to the anti-H2 relaxin antibody [2]	ability to stimulate cAMP responses [3]
CC[C@H](C)[C@@H]1NC(=O)[C@H](Cc2ccccc2)NC(=O)[C@H](CCC(=O)O)NC(=O)[C@H](CCCNC(=N)N)NC(=O)CNC(=O)[C@@H](NC(=O)[C@H](CC(C)C)NC(=O)[C@H](CCCNC(=N)N)NC(=O)[C@@H](NC(=O)CNC(=O)[C@H](Cc2ccc(O)cc2)NC(=O)[C@@H]2CCCN2C(=O)[C@H](C)NC(=O)[C@H](C)NC(=O)[C@@H](N)CCCNC(=N)N)C(C)C)CSSC[C@@H]2NC(=O)[C@@H](NC(=O)[C@H](CO)NC(=O)[C@H](CO)NC(=O)[C@H](CO)NC(=O)[C@H](CC(C)C)NC(=O)CNC(=O)[C@H](C)NC(=O)[C@H](CC(C)C)NC(=O)[C@@H](NC(=O)[C@@H](N)CC(=O)O)C(C)C)CSSC[C@H](NC(=O)CNC(=O)[C@H](Cc3c[nH]c4ccccc34)NC(=O)[C@H](CCCCN)NC2=O)C(=O)N[C@@H](CO)C(=O)N[C@@H](CCCCN)C(=O)N[C@@H](CO)C(=O)N[C@@H](CCC(=O)O)C(=O)N[C@@H]([C@@H](C)CC)C(=O)N[C@@H](CO)C(=O)N[C@@H](CO)C(=O)N[C@@H](CC(C)C)C(=O)N[C@H](C(N)=O)CSSC[C@@H](C(=O)NCC(=O)NCC(=O)N[C@@H](CO)C(=O)N[C@@H](CCCNC(=N)N)C(=O)N[C@@H](Cc2c[nH]c3ccccc23)C(N)=O)NC(=O)[C@H]([C@@H](C)O)NC(=O)[C@H](Cc2ccccc2)NC(=O)[C@H]([C@@H](C)CC)NC(=O)[C@H](C(C)C)NC(=O)[C@H](C)NC(=O)[C@H](CCCNC(=N)N)NC1=O [H3 relaxin, Human Relaxin H3 [hR]x-3 A (1-24) Amide-B (1-27) Amide]	31.6	poor cross reactivity	
H2 relaxin: recombinant H2 relaxin, a gift from the Connetics Corporation		able to displace	
bovine insulin [bINSL]			inability
hINSL3: Human INSL3 synthesized using the same methodology used for ovine INSL3 (chain 1 AAATNPARYCCLSGCTQQDLLTLCPY; chain 2 PTPEMREKLCGHHFVRALVRVCGGPRWSTEA)			inability
